In patent publication US20110034510A1, “ENANTIOMER-ENRICHED ALPHA-,OMEGA-AMINO ALCOHOL DERIVATIVES, THEIR PRODUCTION AND USE AS INSECT- AND MITE-REPELLING AGENTS” (SALTIGO GMBH, priority 2006, published 2011):

How the values were obtained:
Aedes aegypti = assay: Repellent test on a guinea pig (Aedes aegypti); assay type: in vivo; conditions: shaved guinea pig back (50 cm^2) treated with 0.4 ml of solution, 3 parts by weight active ingredient in 100 parts by volume ethanol; bites observed 10 minutes, repeated hourly, maximum 9 hours
Method: A) Repellent Test on a Guinea Pig
Test Animal: Aedes aegypti (Imagines)
3 parts by weight of active ingredient are taken up in 100 parts by volume of solvent
A guinea pig whose back has been shaved in an area of 50 cm^2 is accommodated in a box such that only the shaved area is accessible to the mosquitoes.
It is observed for 10 minutes how many mosquitoes bite the guinea pig. Subsequently, it is removed and the test is repeated after 1 hour. The experiment is performed for a maximum of 9 hours or until the effect ceases.

mosquitoes = assay: Repellent test against mosquitoes on the human lower arm; assay type: in vivo; conditions: compared to the standard racemic mixture; 150 μl test product on 90 cm^2 of human lower arm; 3-minute exposure every hour for up to 8 hours
Text: B) Repellent Effectiveness of Formulations for Use Against Mosquitoes on the Human Arm: […]
The insects, as an actively biting population (approx. 1000 mosquitoes of both genders), are kept in cages (length 90 cm, width 30 cm, height 40 cm, side walls made of gauze) which have two light fabric gates on the front side. The insects have been fed exclusively with sugared water (10% Dextropur). The age of the insects is at least 7 days; the number of insects is made up twice per week by 3-day old fully grown insects.
The low electrical illumination of the cage is active from 6 am to 6 pm, with light from 6 pm to 6 am. The temperature is 25-27° C.; the relative air humidity is 50-70%.
The lower arms of the test subjects are washed with unperfumed soap, rinsed with water, then rinsed with a solution of 70% ethanol and 30% water, and dried with a towel.
90 cm^2 of each lower arm of a test subject is rubbed uniformly with 150 μl (or 150 mg) of the test product. As soon as the formulation is dry (after approx. 5 minutes), a sleeve with an opening of 3.1-8 cm (25 cm^2) is bound around the arm such that the opening is completely over the treated surface. The corners of the opening of the sleeve have likewise been rubbed with the test material (2000) in a width of 1 cm in order to prevent bites at the corners. The area above the sleeve has been protected with a towel through which the mosquitoes cannot penetrate. Hands are protected with latex gloves.
Both arms are introduced into the cage through the fabric gate, and the number of bites (and landings, if necessary) per arm is noted within a 3-minute test period. The test is repeated every hour for up to 8 hours, or ended beforehand if the effect ceases (3 or more bites within 3 minutes or during 2 successive test sequences). Each test consists of three to 5 test subjects.

CC[C@@H](C)OC(=O)N1CCCC[C@@H]1CCO (single isomer, unassigned)
Protection time (Aedes aegypti): 4.4 h
Increase in the protection time* in % (mosquitoes): 3%

CCC(C)OC(=O)N1CCCCC1CCO (stereo in doubt) [1-[(R)-sec-butyloxycarbonyl]-2-(S)-(+)-(2-hydroxyethyl)piperidine]
Protection time (Aedes aegypti): 3.4 h
Increase in the protection time* in % (mosquitoes): 12%

CC[C@H](C)OC(=O)N1CCCC[C@@H]1CCO (stereo in doubt) [1-[(S)-sec-butyloxycarbonyl]-2-(R)-(+)-(2-hydroxyethyl)piperidine]
Protection time (Aedes aegypti): 4.9 h
Increase in the protection time* in % (mosquitoes): 0%

CC[C@H](C)OC(=O)N1CCCC[C@H]1CCO [1-[(S)-sec-butyloxycarbonyl]-2-(S)-(2-hydroxyethyl)piperidine]
Protection time (Aedes aegypti): 3.9 h
Increase in the protection time* in % (mosquitoes): 0%
